Assay results from PubChem BioAssay AID1963959 (Molecular Pharmacology Branch, DTP, NCI, 2024).

System: T-47D spheroids with HUVEC/MSC, viability
Experiment: Anticancer human tumor T-47D cell line growth inhibition [PI3K];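 further: spheroids exposed to agents for seven days before reading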;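 on viability, T/C: percent of DMSO vehicle control luminescence so 100% = untreated growth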
Conditions: for viability, T/C: stronger effect = lower value
How it was run: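 Agents were dosed from a top concentration near clinical Cmax (otherwise 10 microM) in half-log decrements, alone or combined with PI3K inhibitors. The spheroids contain tumor cells plus endothelial (HUVEC) and MSC stroma; viability is measured.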

[1] = curve of first compound, second compound 0.0316 µM
[2] = curve of first compound, second compound 0.1 µM
[3] = curve of first compound, second compound 0.316 µM
[4] = curve of first compound, second compound 1 µM
[5] = curve of first compound, second compound 3.16 µM
[6] = curve of first compound, second compound 10 µM
[7] = second compound 0.0316 µM, first compound 0.0316 µM
[8] = second compound 0.0316 µM, first compound 0.1 µM
[9] = second compound 0.0316 µM, first compound 0.316 µM
[10] = second compound 0.0316 µM, first compound 1 µM
[11] = second compound 0.0316 µM, first compound 3.16 µM
[12] = second compound 0.0316 µM, first compound 10 µM
[13] = second compound 0.1 µM, first compound 0.0316 µM
[14] = second compound 0.1 µM, first compound 0.1 µM
[15] = second compound 0.1 µM, first compound 0.316 µM
[16] = second compound 0.1 µM, first compound 1 µM
[17] = second compound 0.1 µM, first compound 3.16 µM
[18] = second compound 0.1 µM, first compound 10 µM
[19] = second compound 0.316 µM, first compound 0.0316 µM
[20] = second compound 0.316 µM, first compound 0.1 µM
[21] = second compound 0.316 µM, first compound 0.316 µM
[22] = second compound 0.316 µM, first compound 1 µM
[23] = second compound 0.316 µM, first compound 3.16 µM
[24] = second compound 0.316 µM, first compound 10 µM
[25] = second compound 1 µM, first compound 0.0316 µM
[26] = second compound 1 µM, first compound 0.1 µM
[27] = second compound 1 µM, first compound 0.316 µM
[28] = second compound 1 µM, first compound 1 µM
[29] = second compound 1 µM, first compound 3.16 µM
[30] = second compound 1 µM, first compound 10 µM
[31] = second compound 3.16 µM, first compound 0.0316 µM
[32] = second compound 3.16 µM, first compound 0.1 µM
[33] = second compound 3.16 µM, first compound 0.316 µM
[34] = second compound 3.16 µM, first compound 1 µM
[35] = second compound 3.16 µM, first compound 3.16 µM
[36] = second compound 3.16 µM, first compound 10 µM
[37] = second compound 10 µM, first compound 0.0316 µM
[38] = second compound 10 µM, first compound 0.1 µM
[39] = second compound 10 µM, first compound 0.316 µM
[40] = second compound 10 µM, first compound 1 µM
[41] = second compound 10 µM, first compound 3.16 µM
[42] = second compound 10 µM, first compound 10 µM

CNC(=O)c1ccc(N2C(=S)N(c3ccc(C#N)c(C(F)(F)F)c3)C(=O)C2(C)C)cc1F + CC(Nc1ncnc2nc[nH]c12)c1cc2cccc(Cl)c2c(=O)n1-c1ccccc1 showed an IC50 [1] greater than 10 µM, an IC50 [2] greater than 10 µM and an IC50 [3] greater than 10 µM. The IC50 [4] was greater than 10 µM, the IC50 [5] was greater than 10 µM and the IC50 [6] was greater than 10 µM. The viability, T/C [7] was 117%, the viability, T/C [8] was 108% and the viability, T/C [9] was 96.2%. It also gave a viability, T/C [10] of 85.9%, a viability, T/C [11] of 97.1% and a viability, T/C [12] of 79.6%. For the same compound, the viability, T/C [13] was 101%, the viability, T/C [14] was 85.4% and the viability, T/C [15] was 114%. It also gave a viability, T/C [16] of 99.9%, a viability, T/C [17] of 95.4% and a viability, T/C [18] of 80.2%. The viability, T/C [19] was 89%, the viability, T/C [20] was 88% and the viability, T/C [21] was 84.2%. The viability, T/C [22] was 80.7%, the viability, T/C [23] was 92.3% and the viability, T/C [24] was 86.5%. The viability, T/C [25] was 93.7%, the viability, T/C [26] was 87.5% and the viability, T/C [27] was 78.1%. It also gave a viability, T/C [28] of 86%, a viability, T/C [29] of 91.7% and a viability, T/C [30] of 76.9%. The viability, T/C [31] was 88.5%, the viability, T/C [32] was 76.4% and the viability, T/C [33] was 86%. For the same compound, the viability, T/C [34] was 85.5%, the viability, T/C [35] was 95.2% and the viability, T/C [36] was 94%. The viability, T/C [37] was 96.8%, the viability, T/C [38] was 90.9% and the viability, T/C [39] was 84.3%. The viability, T/C [40] was 84.1%, the viability, T/C [41] was 98.3% and the viability, T/C [42] was 88.7%.

CC(=O)c1c(C)c2cnc(Nc3ccc(N4CCNCC4)cn3)nc2n(C2CCCC2)c1=O + Cc1nc(NC(=O)N2CCCC2C(N)=O)sc1-c1ccnc(C(C)(C)C(F)(F)F)c1 gave an IC50 [1] greater than 0.1 µM, an IC50 [2] greater than 0.1 µM and an IC50 [3] greater than 0.1 µM. The IC50 [4] was greater than 0.1 µM, the IC50 [5] was 0.0304 µM and the IC50 [6] was less than 0.000316 µM. It also gave a viability, T/C (second compound 0.0316 µM, first compound 0.000316 µM) of 109%, a viability, T/C (second compound 0.0316 µM, first compound 0.001 µM) of 101% and a viability, T/C (second compound 0.0316 µM, first compound 0.00316 µM) of 98.8%. The viability, T/C (second compound 0.0316 µM, first compound 0.01 µM) was 98.4%, the viability, T/C [7] was 92.1% and the viability, T/C [8] was 89.2%. It also gave a viability, T/C (second compound 0.1 µM, first compound 0.000316 µM) of 101%, a viability, T/C (second compound 0.1 µM, first compound 0.001 µM) of 100% and a viability, T/C (second compound 0.1 µM, first compound 0.00316 µM) of 95.8%. The viability, T/C (second compound 0.1 µM, first compound 0.01 µM) was 107%, the viability, T/C [13] was 95.5% and the viability, T/C [14] was 83%. The viability, T/C (second compound 0.316 µM, first compound 0.000316 µM) was 98.3%, the viability, T/C (second compound 0.316 µM, first compound 0.001 µM) was 110% and the viability, T/C (second compound 0.316 µM, first compound 0.00316 µM) was 88%. For the same compound, the viability, T/C (second compound 0.316 µM, first compound 0.01 µM) was 99.5%, the viability, T/C [19] was 95.2% and the viability, T/C [20] was 75.3%. It also gave a viability, T/C (second compound 1 µM, first compound 0.000316 µM) of 98.4%, a viability, T/C (second compound 1 µM, first compound 0.001 µM) of 90.7% and a viability, T/C (second compound 1 µM, first compound 0.00316 µM) of 85.9%. For the same compound, the viability, T/C (second compound 1 µM, first compound 0.01 µM) was 82.7%, the viability, T/C [25] was 86.6% and the viability, T/C [26] was 61.8%. It also gave a viability, T/C (second compound 3.16 µM, first compound 0.000316 µM) of 65.7%, a viability, T/C (second compound 3.16 µM, first compound 0.001 µM) of 66.8% and a viability, T/C (second compound 3.16 µM, first compound 0.00316 µM) of 69.3%. The viability, T/C (second compound 3.16 µM, first compound 0.01 µM) was 64.2%, the viability, T/C [31] was 49.6% and the viability, T/C [32] was 42.6%. It also gave a viability, T/C (second compound 10 µM, first compound 0.000316 µM) of 37.1%, a viability, T/C (second compound 10 µM, first compound 0.001 µM) of 39.8% and a viability, T/C (second compound 10 µM, first compound 0.00316 µM) of 35.1%. The viability, T/C (second compound 10 µM, first compound 0.01 µM) was 31.3%, the viability, T/C [37] was 23.1% and the viability, T/C [38] was 29.3%.

With C#Cc1c(F)ccc2cc(O)cc(-c3ncc4c(N5CC6CCC(C5)N6)nc(OCC56CCCN5CC(F)C6)nc4c3F)c12 (centres undefined) + Cc1nc(NC(=O)N2CCCC2C(N)=O)sc1-c1ccnc(C(C)(C)C(F)(F)F)c1 the IC50 [1] was greater than 10 µM, the IC50 [2] was greater than 10 µM and the IC50 [3] was greater than 10 µM. It also gave an IC50 [4] greater than 10 µM, an IC50 [5] greater than 10 µM and an IC50 [6] of less than 0.0316 µM. For the same compound, the viability, T/C [7] was 94.8%, the viability, T/C [8] was 91.4% and the viability, T/C [9] was 99%. For the same compound, the viability, T/C [10] was 87.8%, the viability, T/C [11] was 99.6% and the viability, T/C [12] was 74.8%. The viability, T/C [13] was 98.8%, the viability, T/C [14] was 72.2% and the viability, T/C [15] was 73.4%. The viability, T/C [16] was 80.1%, the viability, T/C [17] was 103% and the viability, T/C [18] was 89.4%. The viability, T/C [19] was 90.5%, the viability, T/C [20] was 71.2% and the viability, T/C [21] was 80.3%. The viability, T/C [22] was 97.8%, the viability, T/C [23] was 86% and the viability, T/C [24] was 84.5%. For the same compound, the viability, T/C [25] was 74.2%, the viability, T/C [26] was 84.7% and the viability, T/C [27] was 69.5%. For the same compound, the viability, T/C [28] was 82.7%, the viability, T/C [29] was 82.8% and the viability, T/C [30] was 77.8%. The viability, T/C [31] was 63.4%, the viability, T/C [32] was 65.7% and the viability, T/C [33] was 61.1%. It also gave a viability, T/C [34] of 54%, a viability, T/C [35] of 54.2% and a viability, T/C [36] of 60.8%. The viability, T/C [37] was 38.4%, the viability, T/C [38] was 40.4% and the viability, T/C [39] was 40.8%. For the same compound, the viability, T/C [40] was 31.7%, the viability, T/C [41] was 33% and the viability, T/C [42] was 40.1%.

CC1(C)CCC(CN2CCN(c3ccc(C(=O)NS(=O)(=O)c4ccc(NCC5CCOCC5)c([N+](=O)[O-])c4)c(Oc4cnc5[nH]ccc5c4)c3)CC2)=C(c2ccc(Cl)cc2)C1 + COc1c(OCCCN2CCOCC2)ccc2c3n(c(=NC(=O)c4cnc(N)nc4)nc12)CCN3 was tested, and the IC50 (curve of first compound, second compound 0.00316 µM) was greater than 10 µM, the IC50 (curve of first compound, second compound 0.01 µM) was greater than 10 µM and the IC50 [1] was greater than 10 µM. It also gave an IC50 [2] of less than 0.0316 µM, an IC50 [3] of less than 0.0316 µM and an IC50 [4] of less than 0.0316 µM. It also gave a viability, T/C (second compound 0.00316 µM, first compound 0.0316 µM) of 117%, a viability, T/C (second compound 0.00316 µM, first compound 0.1 µM) of 80.5% and a viability, T/C (second compound 0.00316 µM, first compound 0.316 µM) of 122%. It also gave a viability, T/C (second compound 0.00316 µM, first compound 1 µM) of 74%, a viability, T/C (second compound 0.00316 µM, first compound 3.16 µM) of 82.4% and a viability, T/C (second compound 0.00316 µM, first compound 10 µM) of 108%. For the same compound, the viability, T/C (second compound 0.01 µM, first compound 0.0316 µM) was 100%, the viability, T/C (second compound 0.01 µM, first compound 0.1 µM) was 69.8% and the viability, T/C (second compound 0.01 µM, first compound 0.316 µM) was 91.5%. The viability, T/C (second compound 0.01 µM, first compound 1 µM) was 78.6%, the viability, T/C (second compound 0.01 µM, first compound 3.16 µM) was 80.1% and the viability, T/C (second compound 0.01 µM, first compound 10 µM) was 88.1%. It also gave a viability, T/C [7] of 73%, a viability, T/C [8] of 81.8% and a viability, T/C [9] of 67.3%. For the same compound, the viability, T/C [10] was 69.4%, the viability, T/C [11] was 58.5% and the viability, T/C [12] was 75.1%. It also gave a viability, T/C [13] of 43.7%, a viability, T/C [14] of 42.3% and a viability, T/C [15] of 37.1%. The viability, T/C [16] was 38%, the viability, T/C [17] was 35.2% and the viability, T/C [18] was 41.4%. It also gave a viability, T/C [19] of 15.6%, a viability, T/C [20] of 22.3% and a viability, T/C [21] of 17.9%. The viability, T/C [22] was 18.1%, the viability, T/C [23] was 14.8% and the viability, T/C [24] was 16.6%. For the same compound, the viability, T/C [25] was 6.44%, the viability, T/C [26] was 6.49% and the viability, T/C [27] was 6.92%. It also gave a viability, T/C [28] of 7.19%, a viability, T/C [29] of 4.62% and a viability, T/C [30] of 9.27%.

In the case of CC(C)n1nc(-c2ccc3oc(N)nc3c2)c2c(N)ncnc21, the viability, T/C (compound 0.000316 µM) is reported as 104% [middle of 4 runs], the viability, T/C (compound 0.001 µM) is reported as 96.4% [middle of 4 runs] and the viability, T/C (compound 0.00316 µM) is reported as 97.8% [middle of 4 runs]. For the same compound, the viability, T/C (compound 0.0316 µM) was 87.3% [middle of 4 runs], the viability, T/C (compound 0.1 µM) was 35.7% [middle of 4 runs] and the IC50 (curve of compound) was 70.6 nM [middle of 4 runs].
